Test results: patent US10875850B2, “Pesticidally active azetidine sulfones amide isoxazoline derivatives” (SYNGENTA PARTICIPATIONS AG, priority 2016, dated 2020)

Columns and labels:
Type in all cases: in vivo
Myzus persicae [1] = test: Example B8: Myzus persicae (green peach aphid), feeding/contact activity; details: 144 h
Description: (§1) Sunflower leaf discs were placed onto agar in a 24-well microtiter plate and sprayed with aqueous test solutions prepared from 10′000 ppm DMSO stock solutions. After drying, the leaf discs were infested with an aphid population of mixed ages. The samples were assessed for mortality 6 days after infestation.

Plutella xylostella [2] = test: Example B4: Plutella xylostella (diamond back moth), artificial diet; details: 120 h, read-out: effect in at least one of the two categories (mortality or growth inhibition)
Description: (§2) 24-well microtiter plates with artificial diet were treated with aqueous test solutions prepared from 10′000 ppm DMSO stock solutions by pipetting. After drying, the plates were infested with L2 larvae (10 to 15 per well). The samples were assessed for mortality and growth inhibition in comparison to untreated samples 5 days after infestation. The following compounds gave an effect of at least 80% in at least one of the two categories (mortality or growth inhibition) at an application rate of 200 ppm: A01, A02, A03, A04, A05, A06, A07, A08, A09, A10, A11, A12, A13, A14, A15, A16, A17, A18, A19, A20, A21, A22, A23, A24, A25, A26, A27, A28, B01

Euschistus heros = test: Example B2: Euschistus heros (neotropical brown stink bug), soybean leaves sprayed; details: 120 h, read-out: effect in at least one of the two categories (mortality or growth inhibition)
Description: Soybean leaves on agar in 24-well microtiter plates were sprayed with aqueous test solutions prepared from 10′000 ppm DMSO stock solutions. After drying the leaves were infested with N2 nymphs. The samples were assessed for mortality and growth inhibition in comparison to untreated samples 5 days after infestation. The following compounds gave an effect of at least 80% in at least one of the two categories (mortality or growth inhibition) at an application rate of 200 ppm: A01, A02, A03, A04, A05, A06, A07, A08, A09, A10, A11, A12, A13, A14, A15, A16, A17, A18, A19, A20, A21, A22, A23, A24, A25, A26, A27, A28, B01

Spodoptera littoralis [3] = test: Example B5: Spodoptera littoralis (Egyptian cotton leaf worm), feeding/contact activity; details: 72 h
Description: Cotton leaf discs were placed onto agar in 24-well microtiter plates and sprayed with aqueous test solutions prepared from 10′000 ppm DMSO stock solutions. After drying the leaf discs were infested with five L1 larvae. The samples were assessed for mortality 3 days after infestation.

Diabrotica balteata = test: Example B1: Diabrotica balteata (corn root worm), maize sprouts sprayed; details: 96 h, read-out: effect in at least one of the two categories (mortality or growth inhibition)
Description: as §2, with “Maize sprouts placed onto an agar layer in 24-well” for “24-well”, “plates” for “plates with artificial diet”, “by spraying.” for “by pipetting.”, “larvae (6” for “larvae (10”, “to 10” for “to 15”, “samples 4” for “samples 5”

Tetranychus urticae [4] = test: Example B6: Tetranychus urticae (two-spotted spider mite), feeding/contact activity; details: 192 h, read-out: mortality on mixed population (mobile stages)
Description: Bean leaf discs on agar in 24-well microtiter plates were sprayed with aqueous test solutions prepared from 10′000 ppm DMSO stock solutions. After drying the leaf discs were infested with a mite population of mixed ages. The samples were assessed for mortality on mixed population (mobile stages) 8 days after infestation.

Thrips tabaci [5] = test: Example B7: Thrips tabaci (onion thrips), feeding/contact activity; details: 144 h
Description: as §1, with “on” for “onto”, “in” for “in a”, “plates” for “plate”, “drying” for “drying,”, “a thrips” for “an aphid”

Plutella xylostella [6] = test: Comparative Example C1: Plutella xylostella, feeding/contact activity, various application rates; details: 5 days after infestation
Description: 24-well microtiter plates with artificial diet were treated with aqueous test solutions prepared from 10′000 ppm DMSO stock solutions by pipetting. After drying, the plates were infested with L2 larvae (10 to 15 per well). The samples were assessed for mortality (%) 5 days after infestation at the various application rates.

Spodoptera littoralis [7] = test: Comparative Example C2: Spodoptera littoralis, feeding/contact activity, various application rates; details: 3 days after infestation
Description: (§3) Cotton leaf discs were placed onto agar in 24-well microtiter plates and sprayed with aqueous test solutions prepared from 10′000 ppm DMSO stock solutions. After drying the leaf discs were infested with five L1 larvae. The samples were assessed for mortality (%) 3 days after infestation at the various application rates. Example C3: Tetranychus urticae (Two-Spotted Spider Mite): Feeding/Contact Activity Bean leaf discs on agar in 24-well microtiter plates were sprayed with aqueous test solutions prepared from 10′000 ppm DMSO stock solutions. After drying the leaf discs were infested with a mite population of mixed ages. The samples were assessed for mortality on mixed population (%) (mobile stages) 8 days after infestation at the various application rates.

Thrips tabaci [8] = test: Comparative Example C4: Thrips tabaci, feeding/contact activity, various application rates; details: 6 days after infestation
Description: Sunflower leaf discs were placed on agar in 24-well microtiter plates and sprayed with aqueous test solutions prepared from 10′000 ppm DMSO stock solutions. After drying the leaf discs were infested with a thrips population of mixed ages. The samples were assessed for mortality (%) 6 days after infestation at the various application rates.

Tetranychus urticae [9] = test: Comparative Example C3: Tetranychus urticae, feeding/contact activity, various application rates; details: 8 days after infestation
Description: as §3

Myzus persicae [10] = test: Example B3: Myzus persicae (green peach aphid), intrinsic activity; details: 120 h
Description: Test compounds prepared from 10′000 ppm DMSO stock solutions were applied by pipette into 24-well microtiter plates and mixed with sucrose solution. The plates were closed with a stretched Parafilm. A plastic stencil with 24 holes was placed onto the plate and infested pea seedlings were placed directly on the Parafilm. The infested plate was closed with a gel blotting paper and another plastic stencil and then turned upside down. The samples were assessed for mortality 5 days after infestation.

CS(=O)(=O)N1CC(NC(=O)c2ccc(C3=NOC(c4cc(Cl)c(F)c(Cl)c4)(C(F)(F)F)C3)c3c2CCC3)C1 (centres unmarked) [Compound B01, 7-[5-(3,5-dichloro-4-fluoro-phenyl)-5-(trifluoromethyl)-4H-isoxazol-3-yl]-N-(1-methylsulfonylazetidin-3-yl)indane-4-carboxamide]
mortality at 200 ppm (Myzus persicae [1]): ≥ 80%
percent control (mortality or growth inhibition) at 200 ppm (Plutella xylostella [2]): ≥ 80%
percent control (mortality or growth inhibition) at 200 ppm (Euschistus heros): ≥ 80%
mortality at 200 ppm (Spodoptera littoralis [3]): ≥ 80%
percent control (mortality or growth inhibition) at 200 ppm (Diabrotica balteata): ≥ 80%
mortality at 200 ppm (Tetranychus urticae [4]): ≥ 80%
mortality at 200 ppm (Thrips tabaci [5]): ≥ 80%

Cc1cc(C2=NOC(c3cc(Cl)cc(Cl)c3)(C(F)(F)F)C2)ccc1C(=O)NC1CN(S(C)(=O)=O)C1 (centres unmarked) [Compound A02]
Plutella xylostella larval average mortality (%) (Plutella xylostella [6]; application rate 0.195 ppm): 80%
Plutella xylostella larval average mortality (%) (Plutella xylostella [6]; application rate 0.781 ppm): 100%
Plutella xylostella larval average mortality (%) (Plutella xylostella [6]; application rate 3.12 ppm): 100%
Plutella xylostella larval average mortality (%) (Plutella xylostella [6]; application rate 12.5 ppm): 100%
Plutella xylostella larval average mortality (%) (Plutella xylostella [6]; application rate 50 ppm): 100%
Plutella xylostella larval average mortality (%) (Plutella xylostella [6]; application rate 200 ppm): 100%
Spodoptera littoralis larval average mortality (%) (Spodoptera littoralis [7]; application rate 0.195 ppm): 50%
Spodoptera littoralis larval average mortality (%) (Spodoptera littoralis [7]; application rate 0.781 ppm): 100%
Spodoptera littoralis larval average mortality (%) (Spodoptera littoralis [7]; application rate 3.12 ppm): 100%
Spodoptera littoralis larval average mortality (%) (Spodoptera littoralis [7]; application rate 12.5 ppm): 100%
Spodoptera littoralis larval average mortality (%) (Spodoptera littoralis [7]; application rate 50 ppm): 100%
Spodoptera littoralis larval average mortality (%) (Spodoptera littoralis [7]; application rate 200 ppm): 100%
Thrips tabaci mixed population average mortality (%) (Thrips tabaci [8]; application rate 0.195 ppm): 0%
Thrips tabaci mixed population average mortality (%) (Thrips tabaci [8]; application rate 0.781 ppm): 100%
Thrips tabaci mixed population average mortality (%) (Thrips tabaci [8]; application rate 3.12 ppm): 100%
Thrips tabaci mixed population average mortality (%) (Thrips tabaci [8]; application rate 12.5 ppm): 100%
Thrips tabaci mixed population average mortality (%) (Thrips tabaci [8]; application rate 50 ppm): 100%
Thrips tabaci mixed population average mortality (%) (Thrips tabaci [8]; application rate 200 ppm): 100%
Tetranychus urticae mixed population average mortality (%) (Tetranychus urticae [9]; application rate 0.195 ppm): 0%
Tetranychus urticae mixed population average mortality (%) (Tetranychus urticae [9]; application rate 0.781 ppm): 50%
Tetranychus urticae mixed population average mortality (%) (Tetranychus urticae [9]; application rate 3.12 ppm): 100%
Tetranychus urticae mixed population average mortality (%) (Tetranychus urticae [9]; application rate 12.5 ppm): 100%
Tetranychus urticae mixed population average mortality (%) (Tetranychus urticae [9]; application rate 50 ppm): 100%
Tetranychus urticae mixed population average mortality (%) (Tetranychus urticae [9]; application rate 200 ppm): 100%

CCS(=O)(=O)N1CC(NC(=O)c2ccc(C3=NO[C@@](c4cc(Cl)cc(Cl)c4)(C(F)(F)F)C3)cc2C)C1 [Compound A11, 4-[(5S)-5-(3,5-dichlorophenyl)-5-(trifluoromethyl)-4H-isoxazol-3-yl]-N-(1-ethylsulfonylazetidin-3-yl)-2-methyl-benzamide]
percent control (mortality or growth inhibition) at 200 ppm (Plutella xylostella [2]): ≥ 80%
percent control (mortality or growth inhibition) at 200 ppm (Euschistus heros): ≥ 80%
mortality at 200 ppm (Spodoptera littoralis [3]): ≥ 80%
percent control (mortality or growth inhibition) at 200 ppm (Diabrotica balteata): ≥ 80%
mortality at 12 ppm (Myzus persicae [10]): ≥ 80%
mortality at 200 ppm (Tetranychus urticae [4]): ≥ 80%
mortality at 200 ppm (Thrips tabaci [5]): ≥ 80%
